In patent publication US7867707B2, “Method for detecting analytes in a sample” (Evotec AG, priority 2004, dated 2011):

System: c-fos mRNA
Assay: Expression of c-fos mRNA in HepG2 cells, bead-based confocal detection with detection/capture oligonucleotides
Format: cell-based
Settings: 100 nM PMA, 24 μl of lysate, using the calibration of example 1a
Method: Fully automated dual-channel confocal imaging was performed with two independent cooled CCD detectors. Excitation wavelengths were 532 nm and 633 nm, a dichroic beam splitter with 630 nm was used and emission filters were 565/50 nm and 690/40 nm. Laser power was […] for both wavelengths, measured at the entrance of the objective. Exposure times were usually in the range of 500-1000 ms.
The analysis of the images was performed with image analysis software as follows. Segmentation of the beads from the background was performed on a pixel-basis in the reference image. […] A mask of these rings corresponding to detected beads was generated from the reference image. This mask was applied to the signal image (see FIG. 6, right picture). Areas within the outer boundary of the ring were evaluated for fluorescence intensity stemming from the DO-analyte-CO complex bound to the bead. […] Such local background intensity was then subtracted from the signal intensity.
The final result was the mean fluorescence intensity/bead pixel of the signal image. In general, the intensity was averaged over all correctly detected beads of the image. As already mentioned, images of sedimented beads were taken. The sedimented beads were usually comprised in wells of micro- or nanotiter plates and in some cases, several images were taken of each well. […]

SMILES: CCCCCCCCCCCCCC(=O)O[C@@H]1[C@@H](C)[C@@]2(O)[C@@H](C=C(CO)C[C@]3(O)C(=O)C(C)=C[C@@H]23)[C@@H]2C(C)(C)[C@]12OC(C)=O [PMA, Phorbol 12-myristate 13-acetate]
- c-fos mRNA copy number: 3.03*10^6 copies mRNA/well
